Source: ChEMBL document CHEMBL1201862, “PubChem BioAssay data set” (2004)
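Cells were grown in 96-well plates and exposed to each compound for 48 hours at five concentrations; endpoints were interpolated linearly between bracketing concentrations, or set to the highest concentration if not reached. Here, GI50 denotes the concentration required for 50% inhibition of growth.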 The source made the active and inactive calls. Cut-off read from the data, not from the text of the source: active = GI50 up to about 1.1 µM and inactive = higher.

Experiments:
Assay in all cases: growth of human tumour cells (NCI), 48 h
SNB-75 = system: SNB-75
COLO 205 = system: COLO 205
OVCAR-5 = system: OVCAR-5
NCI-H23 = system: NCI-H23
MDA-N = system: MDA-N
RPMI-8226 = system: RPMI-8226
SF-539 = system: SF-539
UO-31 = system: UO-31
U-251 = system: U-251
DU-145 = system: DU-145
BT-549 = system: BT-549
SNB-19 = system: SNB-19
NCI-H460 = system: NCI-H460
PC-3 = system: PC-3
MDA-MB-231 = system: MDA-MB-231
UACC-257 = system: UACC-257
NCI-H226 = system: NCI-H226
Hs-578T = system: Hs-578T
Malme-3M = system: Malme-3M
T47D = system: T47D
OVCAR-8 = system: OVCAR-8
OVCAR-3 = system: OVCAR-3
SR = system: SR
TK-10 = system: TK-10
ACHN = system: ACHN
MCF7 = system: MCF7
SF-268 = system: SF-268
HOP-62 = system: HOP-62
SN12C = system: SN12C
EKVX = system: EKVX
RXF 393 = system: RXF 393
SK-OV-3 = system: SK-OV-3
M14 = system: M14
LOX IMVI = system: LOX IMVI
UACC-62 = system: UACC-62
HCT-116 = system: HCT-116
IGROV-1 = system: IGROV-1
MDA-MB-435 = system: MDA-MB-435
CCRF-CEM = system: CCRF-CEM
NCI/ADR-RES = system: NCI/ADR-RES
HT-29 = system: HT-29
SF-295 = system: SF-295
SK-MEL-5 = system: SK-MEL-5
K562 = system: K562
A498 = system: A498
HCT-15 = system: HCT-15
SK-MEL-2 = system: SK-MEL-2
CAKI-1 = system: CAKI-1
KM12 = system: KM12
HL-60 = system: HL-60
786-0 = system: 786-0
SW-620 = system: SW-620
MOLT-4 = system: MOLT-4
SK-MEL-28 = system: SK-MEL-28
OVCAR-4 = system: OVCAR-4
A549 = system: A549
NCI-H522 = system: NCI-H522
HCC 2998 = system: HCC 2998

In the case of `CCOC(=O)c1cc(C2CCN(CC(C)CC)C2=S)c(C(=O)/C=C(/C)N)[nH]1` (stereo not drawn), the GI50 (SNB-75) is reported as > 50 µM (inactive), the GI50 (COLO 205) is reported as > 50 µM (inactive) and the GI50 (OVCAR-5) is reported as > 50 µM (inactive). The GI50 (NCI-H23) was > 50 µM (inactive), the GI50 (MDA-N) was > 50 µM (inactive) and the GI50 (RPMI-8226) was > 50 µM (inactive). The GI50 (SF-539) was > 50 µM (inactive), the GI50 (UO-31) was > 50 µM (inactive) and the GI50 (U-251) was > 50 µM (inactive). For the same molecule, the GI50 (DU-145) was > 50 µM (inactive), the GI50 (BT-549) was > 50 µM (inactive) and the GI50 (SNB-19) was > 50 µM (inactive). The GI50 (NCI-H460) was > 50 µM (inactive), the GI50 (PC-3) was > 50 µM (inactive) and the GI50 (MDA-MB-231) was > 50 µM (inactive). The GI50 (UACC-257) was > 50 µM (inactive), the GI50 (NCI-H226) was > 50 µM (inactive) and the GI50 (Hs-578T) was > 50 µM (inactive). For the same molecule, the GI50 (Malme-3M) was > 50 µM (inactive), the GI50 (T47D) was > 50 µM (inactive) and the GI50 (OVCAR-8) was > 50 µM (inactive). For the same molecule, the GI50 (OVCAR-3) was > 50 µM (inactive), the GI50 (SR) was > 50 µM (inactive) and the GI50 (TK-10) was > 50 µM (inactive). The GI50 (ACHN) was > 50 µM (inactive), the GI50 (MCF7) was > 50 µM (inactive) and the GI50 (SF-268) was > 50 µM (inactive). The GI50 (HOP-62) was > 50 µM (inactive), the GI50 (SN12C) was > 50 µM (inactive) and the GI50 (EKVX) was > 50 µM (inactive). For the same molecule, the GI50 (RXF 393) was > 50 µM (inactive), the GI50 (SK-OV-3) was > 50 µM (inactive) and the GI50 (M14) was > 50 µM (inactive). For the same molecule, the GI50 (LOX IMVI) was > 50 µM (inactive), the GI50 (UACC-62) was > 50 µM (inactive) and the GI50 (HCT-116) was > 50 µM (inactive). For the same molecule, the GI50 (IGROV-1) was > 50 µM (inactive), the GI50 (MDA-MB-435) was > 50 µM (inactive) and the GI50 (CCRF-CEM) was > 50 µM (inactive). For the same molecule, the GI50 (NCI/ADR-RES) was > 50 µM (inactive), the GI50 (HT-29) was > 50 µM (inactive) and the GI50 (SF-295) was > 50 µM (inactive). The GI50 (SK-MEL-5) was > 50 µM (inactive), the GI50 (K562) was > 50 µM (inactive) and the GI50 (A498) was > 50 µM (inactive). The GI50 (HCT-15) was greater than 50 µM, the GI50 (SK-MEL-2) was > 50 µM (inactive) and the GI50 (CAKI-1) was > 50 µM (inactive). The GI50 (KM12) was > 50 µM (inactive), the GI50 (HL-60) was > 50 µM (inactive) and the GI50 (786-0) was > 50 µM (inactive). The GI50 (SW-620) was > 50 µM (inactive) and the GI50 (MOLT-4) was > 50 µM (inactive).

With `CCNCC(O)COc1ccc2c(c1)[n+]([O-])nc(N)[n+]2[O-]` (stereo not drawn) the GI50 (SNB-75) was 29.4 µM (inactive), the GI50 (COLO 205) was 68.9 µM (inactive) and the GI50 (OVCAR-5) was > 100 µM (inactive). For the same molecule, the GI50 (NCI-H23) was 47.4 µM (inactive), the GI50 (MDA-N) was > 100 µM (inactive) and the GI50 (RPMI-8226) was 61.9 µM (inactive). The GI50 (SF-539) was 37.3 µM (inactive), the GI50 (UO-31) was > 100 µM (inactive) and the GI50 (U-251) was 42.7 µM (inactive). For the same molecule, the GI50 (DU-145) was 71.3 µM (inactive), the GI50 (BT-549) was > 100 µM (inactive) and the GI50 (SNB-19) was 61.2 µM (inactive). The GI50 (NCI-H460) was > 10 µM (inactive), the GI50 (PC-3) was 24.7 µM (inactive) and the GI50 (SK-MEL-28) was > 100 µM (inactive). The GI50 (MDA-MB-231) was > 100 µM (inactive), the GI50 (UACC-257) was > 100 µM (inactive) and the GI50 (NCI-H226) was 59.2 µM (inactive). The GI50 (Hs-578T) was 54.6 µM (inactive), the GI50 (T47D) was 81.8 µM (inactive) and the GI50 (OVCAR-8) was 56 µM (inactive). For the same molecule, the GI50 (OVCAR-3) was > 100 µM (inactive), the GI50 (SR) was 45.5 µM (inactive) and the GI50 (TK-10) was > 100 µM (inactive). For the same molecule, the GI50 (OVCAR-4) was 37.2 µM (inactive), the GI50 (A549) was 24.2 µM (inactive) and the GI50 (ACHN) was 30.1 µM (inactive). For the same molecule, the GI50 (MCF7) was 74 µM (inactive), the GI50 (SF-268) was 31.3 µM (inactive) and the GI50 (HOP-62) was 23.5 µM (inactive). The GI50 (SN12C) was 45.4 µM (inactive), the GI50 (EKVX) was > 100 µM (inactive) and the GI50 (SK-OV-3) was 10.6 µM (inactive). For the same molecule, the GI50 (M14) was 40.7 µM (inactive), the GI50 (LOX IMVI) was 14.3 µM (inactive) and the GI50 (UACC-62) was 18 µM (inactive). The GI50 (HCT-116) was 50.2 µM (inactive), the GI50 (IGROV-1) was 36.3 µM (inactive) and the GI50 (MDA-MB-435) was > 100 µM (inactive). For the same molecule, the GI50 (CCRF-CEM) was 19 µM (inactive), the GI50 (NCI/ADR-RES) was > 100 µM (inactive) and the GI50 (HT-29) was 68.9 µM (inactive). For the same molecule, the GI50 (SF-295) was 34.4 µM (inactive), the GI50 (SK-MEL-5) was 24.8 µM (inactive) and the GI50 (K562) was 35.2 µM (inactive). The GI50 (A498) was 27.8 µM (inactive), the GI50 (NCI-H522) was 12.6 µM (inactive) and the GI50 (HCT-15) was 63.7 µM. For the same molecule, the GI50 (SK-MEL-2) was 39.6 µM (inactive), the GI50 (CAKI-1) was 26.9 µM (inactive) and the GI50 (KM12) was 59.3 µM (inactive). For the same molecule, the GI50 (HL-60) was 43.1 µM (inactive), the GI50 (786-0) was 51.6 µM (inactive) and the GI50 (SW-620) was 32.7 µM (inactive). The GI50 (MOLT-4) was 14.5 µM (inactive).

For `COC(=O)/N=[N+](\[O-])C(c1ccccc1)c1ccccc1`, the GI50 (SNB-75) was 82.4 µM (inactive), the GI50 (COLO 205) was 76.2 µM (inactive) and the GI50 (OVCAR-5) was > 100 µM (inactive). For the same molecule, the GI50 (NCI-H23) was 29.1 µM (inactive), the GI50 (MDA-N) was 59.2 µM (inactive) and the GI50 (RPMI-8226) was 38.5 µM (inactive). The GI50 (SF-539) was > 100 µM (inactive), the GI50 (UO-31) was 13.4 µM (inactive) and the GI50 (U-251) was > 100 µM (inactive). The GI50 (DU-145) was 42.6 µM (inactive), the GI50 (BT-549) was > 100 µM (inactive) and the GI50 (SNB-19) was > 100 µM (inactive). The GI50 (NCI-H460) was > 100 µM (inactive), the GI50 (PC-3) was 60.4 µM (inactive) and the GI50 (SK-MEL-28) was > 100 µM (inactive). For the same molecule, the GI50 (MDA-MB-231) was > 100 µM (inactive), the GI50 (UACC-257) was 28.4 µM (inactive) and the GI50 (NCI-H226) was 38.6 µM (inactive). The GI50 (Hs-578T) was > 100 µM (inactive), the GI50 (Malme-3M) was 27.1 µM (inactive) and the GI50 (T47D) was 40.2 µM (inactive). For the same molecule, the GI50 (OVCAR-8) was > 100 µM (inactive), the GI50 (OVCAR-3) was 98.9 µM (inactive) and the GI50 (SR) was > 100 µM (inactive). The GI50 (TK-10) was > 100 µM (inactive), the GI50 (OVCAR-4) was 34.8 µM (inactive) and the GI50 (A549) was 33.2 µM (inactive). The GI50 (MCF7) was > 100 µM (inactive), the GI50 (SF-268) was > 100 µM (inactive) and the GI50 (HCC 2998) was > 100 µM (inactive). For the same molecule, the GI50 (SN12C) was > 100 µM (inactive), the GI50 (EKVX) was 27.6 µM (inactive) and the GI50 (RXF 393) was 63.8 µM (inactive). The GI50 (SK-OV-3) was > 100 µM (inactive), the GI50 (M14) was 31.8 µM (inactive) and the GI50 (LOX IMVI) was 69 µM (inactive). For the same molecule, the GI50 (UACC-62) was 51.6 µM (inactive), the GI50 (HCT-116) was > 100 µM (inactive) and the GI50 (IGROV-1) was 61.8 µM (inactive). The GI50 (MDA-MB-435) was 31 µM (inactive), the GI50 (CCRF-CEM) was 82 µM (inactive) and the GI50 (NCI/ADR-RES) was 40.1 µM (inactive). The GI50 (HT-29) was > 100 µM (inactive), the GI50 (SK-MEL-5) was 41.9 µM (inactive) and the GI50 (K562) was 47.8 µM (inactive). The GI50 (A498) was > 100 µM (inactive), the GI50 (NCI-H522) was > 100 µM (inactive) and the GI50 (HCT-15) was 89.7 µM. The GI50 (SK-MEL-2) was 43.2 µM (inactive), the GI50 (CAKI-1) was 76.6 µM (inactive) and the GI50 (KM12) was > 100 µM (inactive). The GI50 (HL-60) was > 100 µM (inactive), the GI50 (786-0) was > 100 µM (inactive) and the GI50 (SW-620) was > 100 µM (inactive). For the same molecule, the GI50 (MOLT-4) was > 100 µM (inactive).
